This is an account of results in patent publication US20140235568A1, “GEMCITABINE AMIDE DERIVATIVE AND PREPARATION METHOD AND USE THEREOF” (priority 2011, published 2014).

Values after ≈ are worked out from the molar mass of the structure shown. Read-outs that look alike come from different tables or passages of the source.

For data set [1], the system named is HCT116 (human colon cancer cells). Put plainly: MTT assay, in vitro inhibition of proliferation of human tumor cells. The format is cell-based. To be noted: for IC50: Homo sapiens, HCT-116, 72 h; for HCT116 100 μg/ml IC %: inhibition at 100 μg/ml, 72 h. The procedure: (§1) The tumor cell lines used in the experiments were as follows: A549 (human lung cancer cells), HCT116 (human colon cancer cells), HepG2 (human hepatoma cells), ZR-75-30 (human breast cancer cell), purchased from Shanghai Institute of Pharmaceutical Industry.
(§2) The sample was dissloved in DMSO (Merck), and PBS was added to prepare a 1000 μg/mL of solution or a uniform suspension. And then, DMSO-containing PBS (−) was added to dilute the solution or suspension. The positive control medicaments were gemcitabine (GEM) and LY2334737 developed by Eli Lilly and Company.
(§3) MTT assay: 100 μL cell suspension (4˜5×10^4 cells/mL) was added into each well of 96-well plate, and cultured in 37° C., 5% CO2 incubator. After 24 h, the sample solution was added in duplicate, 10 μL/well, and incubated at 37° C., 5% CO2 for 72 h. 20 μL MTT solution (5 mg/mL) was added into each well. After 4 h, a dissolving solution was added, 100 μL/well. The plate was placed into the incubator. After dissolved, OD value at 570 nm was measured on MK-2 automatic microplate reader.

For data set [2], the system named is ZR-75-30 (human breast cancer cell). The description is as above. The class given is cell-based. Conditions: for IC50: Homo sapiens, ZR-75-30, 72 h; for ZR-75-30 100 μg/ml IC %: inhibition at 100 μg/ml, 72 h. The procedure: as §1, §2, §3
Data set [3] deals with A549 (human lung cancer cells). The data set is described as above. To be noted: for IC50: Homo sapiens, A549, 72 h; for A549 100 μg/ml IC %: inhibition at 100 μg/ml, 72 h. The format is cell-based. As to the method: as §1, §2, §3
The subject of data set [4] is HepG2 (human hepatoma cells). The description is as above. To be noted: for IC50: Homo sapiens, HepG2, 72 h; for HepG2 100 μg/ml IC %: inhibition at 100 μg/ml, 72 h. The class given is cell-based. As to the method:
as §1, §2, §3

Data set [5] has as its system NCI 60 human tumor cells. Put plainly: NCI in vitro cytotoxic activity screening. Conditions: for GI50: Homo sapiens, derived from MGM; for MGM: NCI 60 human tumor cells, GI50 in M (log). The format is cell-based. As to the method:
The cytotoxic activities of Compounds SYN-141 and SYN-165 were assayed in NCI systemactically.

Data set [6] concerns human colon cancer cells HCT116 xenografts. Kind of data set: In vivo antitumor activity test, xenografts in nude mice. To be noted: dosed 0.1-10 mg/kg body weight, better than LY2334737 at the same dose. The procedure: Some of the compounds were tested in vivo using human colon cancer cells HCT116 xenografts in nude mice according to a literature method (Wei Hong, Medical Laboratory Animal Science, Sichuan Science and Technology Press, 2nd edition, Chengdu, 2001, 595-596).

Data set [7] relates to hepatitis C virus. Conditions: patients, minimum dose, within a few days (1-2 days in some cases); cited from earlier work.

`CCCCCCCC(=O)Nc1ccn([C@@H]2O[C@H](CO)C(O)C2(F)F)c(=O)n1` (stereo partly drawn) [SYN-165, N^4-n-octanoyl Gemcitabine]: the melting point worked out at 139 °C. In data set [1], it took 0.154 µg/mL (≈ 0.395 µM) to reach half-maximal inhibition (IC50) and the “HCT116 100 μg/ml IC %” value came to 99.01%. Also, in data set [2], the half-maximal inhibitory concentration (IC50) came to 0.135 µg/mL (≈ 0.347 µM) and the “ZR-75-30 100 μg/ml IC %” value is on record as 96.30%. Also, in data set [3], 42.5 µg/mL (≈ 109 µM) corresponded to half-maximal inhibition (IC50) and the “A549 100 μg/ml IC %” value amounted to 55.82%. Moreover, in data set [4], the 50% inhibitory concentration (IC50) was 0.123 µg/mL (≈ 0.316 µM) and the “HepG2 100 μg/ml IC %” value is 77.90%. Further, the GI50 in data set [5] (read-out: total average GI50 against 60 human tumor cells) worked out at 75.8 nM. The MGM in data set [5] is listed as −7.12. Besides, the “in vivo antitumor activity” value in data set [6] is on record as “potent in vivo antitumor activity”.

`Nc1ccn([C@@H]2O[C@H](CO)[C@@H](O)C2(F)F)c(=O)n1` [GEM, gemcitabine]: the “reduction of hepatitis C viral load” value in data set [7] was at least 2 logarithmic unit. Also, in data set [1], half-maximal inhibition (IC50) was put at 0.0237 µg/mL (≈ 0.09 µM) and the “HCT116 100 μg/ml IC %” value was determined as 78.07%. Besides, in data set [2], half-maximal inhibition (IC50) required 0.454 µg/mL (≈ 1.72 µM) and the “ZR-75-30 100 μg/ml IC %” value was 96.60%. In addition, in data set [3], the IC50 was found to be 3.74 µg/mL (≈ 14.2 µM) and the “A549 100 μg/ml IC %” value is given as 57.57%. In data set [4], half-maximal inhibition (IC50) required 0.263 µg/mL (≈ 0.999 µM) and the “HepG2 100 μg/ml IC %” value amounted to 53.34%.

With `O=C(CCCc1ccccc1)Nc1ccn([C@@H]2O[C@H](CO)C(O)C2(F)F)c(=O)n1` (stereo partly drawn) [SYN-141, N^4-(4-phenyl)butyryl Gemcitabine], the melting point is 111 °C. Moreover, in data set [1], the IC50 worked out at 0.269 µg/mL (≈ 0.657 µM) and the “HCT116 100 μg/ml IC %” value turned out to be 92.46%. Further, in data set [2], 4.7 µg/mL (≈ 11.5 µM) corresponded to half-maximal inhibition (IC50) and the “ZR-75-30 100 μg/ml IC %” value was 91.63%. Further, in data set [3], it took 5.6 µg/mL (≈ 13.7 µM) to reach half-maximal inhibition (IC50) and the “A549 100 μg/ml IC %” value came to 56.38%. In addition, in data set [4], the midpoint of inhibition, the IC50, lay at 7.2 µg/mL (≈ 17.6 µM) and the “HepG2 100 μg/ml IC %” value is on record as 62.48%. Further, the 50% growth inhibitory concentration (GI50) in data set [5] (read-out: total average GI50 against 60 human tumor cell lines) is 620 nM. In data set [5], this compound yielded an MGM of −6.21. Moreover, in data set [6], the “in vivo antitumor activity” value is “potent in vivo antitumor activity”.

Regarding `CCCCC(=O)Nc1ccn([C@@H]2O[C@H](CO)C(O)C2(F)F)c(=O)n1` (stereo partly drawn) [SYN-147, N^4-n-valeryl Gemcitabine Gemcitabine], the melting point was determined as 184 °C. In data set [1], the IC50 was determined as 0.193 µg/mL (≈ 0.556 µM) and the “HCT116 100 μg/ml IC %” value was 88.14%. Also, in data set [2], it took 1.13 µg/mL (≈ 3.25 µM) to reach half-maximal inhibition (IC50) and the “ZR-75-30 100 μg/ml IC %” value came to 90.22%. Moreover, in data set [3], 7.82 µg/mL (≈ 22.5 µM) corresponded to half-maximal inhibition (IC50) and the “A549 100 μg/ml IC %” value was determined as 58.09%. Also, in data set [4], half-maximal inhibition (IC50) was put at 0.246 µg/mL (≈ 0.708 µM) and the “HepG2 100 μg/ml IC %” value came to 59.49%. Further, in data set [6], the “in vivo antitumor activity” value is given as “potent in vivo antitumor activity”.

Take `CCCC(=O)Nc1ccn([C@@H]2O[C@H](CO)C(O)C2(F)F)c(=O)n1` (stereo partly drawn) [SYN-140, N^4-n-butyryl gemcitabine]: the melting point came to 198 °C. Further, in data set [1], the half-inhibitory concentration (IC50) turned out to be 0.395 µg/mL (≈ 1.19 µM) and the “HCT116 100 μg/ml IC %” value turned out to be 87.79%. Besides, in data set [2], the half-maximal inhibitory concentration (IC50) amounted to 3.01 µg/mL (≈ 9.03 µM) and the “ZR-75-30 100 μg/ml IC %” value turned out to be 89.52%. For the same compound, in data set [3], the IC50 was found to be 4.26 µg/mL (≈ 12.8 µM) and the “A549 100 μg/ml IC %” value stood at 64.84%. Moreover, in data set [4], the half-maximal inhibitory concentration (IC50) came out at 84.4 µg/mL (≈ 253 µM) and the “HepG2 100 μg/ml IC %” value worked out at 50.42%. Besides, the “in vivo antitumor activity” value in data set [6] is listed as “potent in vivo antitumor activity”.

`CCCC(CCC)C(=O)Nc1ccn([C@@H]2O[C@H](CO)[C@@H](O)C2(F)F)c(=O)n1` [LY-2334737, N4-valproyl gemcitabine, reference compound]: in data set [1], half-maximal inhibition (IC50) was put at 3.81 µg/mL (≈ 9.78 µM) and the “HCT116 100 μg/ml IC %” value is 84.51%. Further, in data set [2], the midpoint of inhibition, the IC50, lay at 29.3 µg/mL (≈ 75.3 µM) and the “ZR-75-30 100 μg/ml IC %” value came out at 78.36%. Besides, in data set [3], the midpoint of inhibition, the IC50, lay at 18.3 µg/mL (≈ 46.9 µM) and the “A549 100 μg/ml IC %” value stood at 60.05%. Moreover, in data set [4], the IC50 turned out to be 1.78 µg/mL (≈ 4.57 µM) and the “HepG2 100 μg/ml IC %” value is given as 67.52%.
